Columns and labels:
[1] = Pharmacokinetic study in female Beagle dog, 169.5 mg/mL composition (Example 24); type: in vivo; details: female Beagle dogs, Compound I 169.5 mg/mL, 17 mg/kg IM, two sites
Procedure: A total of 2 female beagle dogs were used in this study.
(§1) All dogs were administered intramuscularly at the gluteal region.
(§2) Dose volume was equally divided and administered to two IM sites.
(§3) At each time point, −0.5 mL of blood was withdrawn and transferred into a pre-labeled K2EDTA coated vacutainer tubes and mixed gently by inverting the tube to facilitate mixing of anticoagulant with the blood. Blood samples were kept on gel packs until centrifugation. The collected blood samples were centrifuged at 5000 rpm for 5 min at 4° C. Plasma was separated after centrifugation. All plasma samples were transferred into pre-labeled (Animal ID No., Time point, Study No., and Group) tubes and stored at −70±10° C. until analysis.
Bioanalysis of plasma samples was performed using fit-for-purpose LC-MS/MS method for the quantification of fulvestrant and Compound I.
Linearity range for Fulvestrant and Compound I analytes were 1 to 1000 ng/mL. The plasmapharmacokinetic parameters for Fulvestrant and Compound I were calculated using standard non-compartmental analysis (Phoenix® software, version 8.3, Pharsight Corporation, Mountain View, California 94040/USA) linear trapezoidal method with linear interpolation.

[2] = Pharmacokinetic study in male cynomolgus monkey (Example 25); details: male cynomolgus monkeys; Compound I 28.3 mg/kg IM, 169.5 mg/mL, one site
Procedure: (§4) Procedure: In this single-dose pharmacokinetics study, four Non-Naïve male Cyno monkeys (Age—2.5-6 years, Weight 2-5 kg) were randomly assigned into two groups to evaluate the pharmacokinetics of Faslodex (1 animal) Vs. Compound I (3 animals) following single intramuscular (IM) administration. The test articles were monitored in plasma for up to 336 h (14 days) following dosing. Faslodex at dose of 25 mg/kg (50 mg/mL fulvestrant strength, 500 mg human equivalent dose) was intramuscularly administrated into monkey at study Day 0. The dosage volume 0.5 mL/kg was equally divided and administered at two sites. Compound I at dose 28.3 mg/kg (25 mg/kg Fulvestrant equivalent) having strength 169.5 mg/mL (150 mg/mL fulvestrant equivalent) was intramuscularly administrated into monkeys at study Day 0. The dosage volume of 0.15 mL/kg was administered on one IM site. Blood samples were collected through cephalic or saphenous vein at 0 (Pre-dose), 0.25, 1, 2, 4, 8, 12, 24, 48, 72, 96, 120, 144, 168, 192, 216, 240, 264, 288, 312, and 336 hours. Plasma concentrations of Compound I and fulvestrant were determined using LC/MS/MS to construct semi-logarithmic plasma concentration-time curves. Pharmacokinetic analysis was performed using non-compartmental model.

in vivo = details: male, cynomolgus monkey, im, 28.3 mg/kg
Procedure: as §4

[3] = Stability of Compound I in solubilised composition; type: physicochemical
From the text: Example 15: Stability of Compound I in Solubilised Composition
Example 16: Stability of Compound I in Solubilised Composition
Example 17: Stability of Compound I in Solubilised Composition

[4] = Pharmacokinetics after single intramuscular administration in female SD rats (Example 18); type: in vivo; details: Sprague-Dawley, rat, plasma, im, 59 mg/kg, Compound I 100 mg/mL, mean ± SD; for AUC(0-t): read-out: AUClast of Compound I in plasma
Procedure: The objective of the study was to evaluate single site Vs. two site IM injection of compound I and it impact on pharmacokinetic exposure in female rats. Study was performed in female SD rats with n=6 animals per group. Faslodex 52 mg/kg (human equivalent dose) was administrated at two IM sites by dividing dose volume to half. In similar manner, 59 mg/kg (100 mg/mL compound I concentration) (52 mg/kg Fulvestrant equivalent) was administered as single injection (one IM site) or two IM injection by dividing dose volume in half. […] At each time point, −0.3 mL blood was collected in tubes containing Li-heparin as anti-coagulant. For plasma separation, blood was centrifuges at 5000 rpm for 10 minutes at 4° C. and collected plasma was stored at −80° C. until further analysis.
Bioanalysis in plasma samples was performed using fit-for-purpose LC-MS/MS method for the quantification Fulvestrant and Compound I. Linearity range for Fulvestrant and Compound I analytes were 2 to 2000 ng/mL. The bioanalytical summary for Fulvestrant concentration in all three groups is shown in table 1 and graphical representation is shown in FIG. 1 Concentration of Compound I is shown in table 2 and graphical representation is shown in FIG. 2. The plasma pharmacokinetic parameters for Fulvestrant and Compound I were calculated using standard non-compartmental analysis (Phoenix® software, version 8.1, Pharsight Corporation, Mountain View, California 94040/USA) linear trapezoidal method with linear interpolation.

[5] = Pharmacokinetics after single intramuscular administration in female Beagle dogs (Example 19); type: in vivo; details: 17 mg/kg IM, mean ± SD; for Cmax / Tmax / AUC(0-inf) / AUC(0-t): female, beagle, dog, plasma, im, 17 mg/kg; for AUC(0-inf): read-out: AUCinf—obs of Compound I in plasma; for AUC(0-t): read-out: AUClast of Compound I in plasma
Procedure: A total of 9 female Beagle dogs were used in this study. The study was performed as a parallel design study.
as §1, §2
as §3, with “a pre-labelled” for “a pre-labeled”
Bioanalysis in plasma samples was performed using fit-for-purpose LC-MS/MS method for the quantification of—Group 1—Fulvestrant • Group 2—Fulvestrant and Compound I • Group 3—Fulvestrant and Compound I
Linearity range for Fulvestrant and Compound I analytes were 1 to 1000 ng/mL. The bioanalytical summary for Fulvestrant concentration in all three groups is shown in table 4 and graphical representation is shown in FIG. 3 Concentration of pro-drug Compound I is shown in table 5 and graphical representation is shown in FIG. 4. The plasma pharmacokinetic parameters for Fulvestrant and Compound I were calculated using standard non-compartmental analysis (Phoenix® software, version 8.3, Pharsight Corporation, Mountain View, California 94040/USA) linear trapezoidal method with linear interpolation. Ratio of fulvestrant obtained after dosing Compound I to that of Faslodex was calculated for parameters Cmax and AUC is reported in Table 6(A) and Table 6(B).

[6] = composition with 113 mg/ml compound I, Initial
[7] = composition with 113 mg/ml compound I, Room Temp (45 Days)
[8] = composition with 169.5 mg/ml compound I, Initial
[9] = composition with 169.5 mg/ml compound I, Room Temp (30 Days)
[10] = composition with 226 mg/ml compound I, Initial
[11] = composition with 226 mg/ml compound I, Room Temp (30 Days)

C[C@]12CC[C@@H]3c4ccc(OP(=O)(O)O)cc4C[C@@H](CCC[S+]([O-])CCCC(F)(F)C(F)(F)F)[C@H]3[C@@H]1CC[C@@H]2O (stereo partly shown) [Compound I]
Tmax ([1]; dog, plasma): 8 h | Cmax ([1]; dog, plasma, mean ± SD): 322 ± 14.1 ng/mL | AUC(0-inf) ([1]; dog, plasma, mean ± SD, read-out: AUCinf—obs of Compound I in plasma): 5540 ± 1880 ng·h/mL | AUC(0-t) ([1]; dog, plasma, mean ± SD, read-out: AUClast of Compound I in plasma): 5510 ± 1880 ng·h/mL | AUC% exp. pol of Compound I ([1]; mean ± SD): 0.578 ± 0.303% | C_max (Compound I in plasma) [2]: 1081 ng/mL | T_max (Compound I in plasma) [2]: 3.42 h | T_½ (Compound I in plasma) [2]: 12.79 h | Tlast (Compound I in plasma) [2]: 152.00 h | AUC(0-t) (in vivo): 17500 ng·h/mL | Description ([3]; composition with 113 mg/ml compound I (equivalent to 100 mg/ml Fulvestrant), Initial): Clear colorless to light | Assay of compound I(%) [3, 6]: 104.0% | Visual Inspection [3, 6]: Clear solution, No | Assay of compound I(%) [3, 7]: 103.3% | Description [3, 7]: Clear colorless to light | Visual Inspection [3, 7]: Clear solution, No | Description ([3]; composition with 169.5 mg/ml compound I (equivalent to 150 mg/ml Fulvestrant), Initial): Clear colorless to light | Assay of compound I(%) [3, 8]: 100.4% | Visual Inspection [3, 8]: Clear solution, No | Assay of compound I(%) [3, 9]: 95.30% | Description [3, 9]: Clear colorless to light | Visual Inspection [3, 9]: Clear solution, No | Assay of compound I(%) [3, 10]: 101.8% | Visual Inspection [3, 10]: Clear solution, No | Assay of compound I(%) [3, 11]: 98% | Description [3, 11]: Clear colorless to light | Visual Inspection [3, 11]: Clear solution, No | Cmax ([4]; IM single site): 969 ± 349 ng/mL | Tmax ([4]; IM single site): 3.17 ± 2.56 h | AUC(0-t) ([4]; IM single site): 12400 ± 3430 ng·h/mL | Cmax ([4]; IM two sites): 1150 ± 500 ng/mL | Tmax ([4]; IM two sites): 1.83 ± 0.41 h | AUC(0-t) ([4]; IM two sites): 12800 ± 3120 ng·h/mL | AUC% exp. pol of Compound I ([5]; Compound I 50 mg/mL): 0.967 ± 0.255% | AUC% exp. pol of Compound I ([5]; Compound I 100 mg/mL): 0.974 ± 0.886% | Cmax ([5]; Compound I 50 mg/mL): 624 ± 274 ng/mL | Tmax ([5]; Compound I 50 mg/mL): 0.83 ± 1.01 h | AUC(0-inf) ([5]; Compound I 50 mg/mL): 4260 ± 1060 ng·h/mL | AUC(0-t) ([5]; Compound I 50 mg/mL): 4220 ± 1060 ng·h/mL | Cmax ([5]; Compound I 100 mg/mL): 272 ± 183 ng/mL | Tmax ([5]; Compound I 100 mg/mL): 1.83 ± 1.89 h | AUC(0-inf) ([5]; Compound I 100 mg/mL): 4360 ± 1390 ng·h/mL | AUC(0-t) ([5]; Compound I 100 mg/mL): 4320 ± 1410 ng·h/mL

From US20260124221A1, “INJECTABLE PHARMACEUTICAL COMPOSITION FOR TREATMENT OF BREAST CANCER” (KASHIV BIOSCIENCES, LLC, priority 2021, published 2026)
